Data: ChEMBL document CHEMBL2095176, “GSK Tuberculosis Screening Data”
Values after ≈ are worked out from the molar mass of the structure shown.

How the values were obtained:
[1] = test system: Mycobacterium tuberculosis H37Rv; assay: microbe, parasite or virus in culture
Description: GSK_TB: Intracellular minimum inhibitory concentration (MIC) H37Rv assay

[2] = physchem; conditions: phosphate buffered saline, pH 7.4
[3] = physchem; conditions: octanol/water
Description: GSK_TB: GSK in-house hydrophobicity assay (logP)

[4] = physchem; conditions: buffer, pH 7.4
Description: GSK_TB: GSK in-house hydrophobicity assay at pH7.4 (logD)

Row | SMILES | MIC90 [1] [µM] | solubility kinetic [2] [µM] | logP [3] | logD [4]
1 | O=C(NNC(=O)c1ccc([N+](=O)[O-])o1)c1ccc2ccccc2c1 | 8.32 (≈ 2.71 µg/mL) | 1 (≈ 0.325 µg/mL) | 3.48 | 3.02
2 | CC(=O)N1CCc2cc3nc(C)cc(C)c3cc21 | 3.7 (≈ 0.889 µg/mL) | 309 (≈ 74.3 µg/mL) | 2.65 | 2.64
3 | Cc1nc2ccccn2c1C(=O)NCc1ccc2c(c1)OCO2 | 2.9 (≈ 0.897 µg/mL) | 357 (≈ 110 µg/mL) | 3.02 | 3.02
4 | FC(F)(F)c1nnc2ccc(Cl)nn12 | 9.1 (≈ 2.03 µg/mL) | 344 (≈ 76.6 µg/mL) | 3.1 | 3.11
5 | CNc1nc(SC)nc2ccsc12 | 3.4 (≈ 0.718 µg/mL) | 439 (≈ 92.8 µg/mL) | 3.3 | 3.3
6 | Brc1cncc(-c2cc(NCCCn3ccnc3)nc(-c3ccccc3)n2)c1 | 5.19 (≈ 2.26 µg/mL) | 15 (≈ 6.53 µg/mL) | 5.83 | 5.53
7 | Cl.O=C(c1ccco1)N(CCCn1ccnc1)c1nc2c(Cl)cccc2s1 | 8.41 | 21 | 5.63 | 5.25
8 | Clc1ccc(CCNc2cc(-c3ccccc3)nc3ncnn23)cc1 | 1.5 (≈ 0.525 µg/mL) | 1 (≈ 0.35 µg/mL) | 5.73 | 5.53
9 | Cc1n[nH]c(C)c1S(=O)(=O)NCc1nc(NCCCc2ccccc2)c2ccccc2n1 | 1.8 (≈ 0.811 µg/mL) | 240 (≈ 108 µg/mL) | 4.52 | 4.32
10 | COc1cc(C(F)(F)F)nc2ccc(C)c(N)c12 | 5.3 (≈ 1.36 µg/mL) | 446 (≈ 114 µg/mL) | 5.13 | 4.97
11 | O=C(c1cc2c(s1)CCC2)N1CCN(Cc2ccc3c(c2)OCO3)CC1 | 5.3 (≈ 1.96 µg/mL) | 117 (≈ 43.3 µg/mL) | 6.34 | 6.09
12 | CNc1nc(SCC(=O)N(C)Cc2ccc(Cl)s2)nc2ccccc12 | 5.62 (≈ 2.21 µg/mL) | 56 (≈ 22 µg/mL) | 5.23 | 5.07
13 | O=C(NCc1ccc(Oc2ccccc2)cc1)c1c(C(F)(F)F)nc2ccccn12 | 0.2 (≈ 0.0823 µg/mL) | 1 (≈ 0.411 µg/mL) | 6.58 | 6.28
14 | Cc1nc2ccccn2c1C(=O)NCc1ccc(Cl)cc1 | 0.4 (≈ 0.12 µg/mL) | 405 (≈ 121 µg/mL) | 4.12 | 4.04
15 | CC(C)(C)C(=O)CC1(O)Oc2ccccc2N=C1C=C(O)C(C)(C)C (stereo not given) | 4.03 (≈ 1.39 µg/mL) | 75 (≈ 25.9 µg/mL) | 7.84 | 7.49
16 | O=C(C1CCN(c2nnc(-n3cccc3)s2)CC1)N1CCC(Cc2ccccc2)CC1 | 4.2 (≈ 1.83 µg/mL) | 1 (≈ 0.436 µg/mL) | 6.78 | 6.37
17 | COc1cc(Nc2ccccc2)ccc1NS(=O)(=O)c1c(C)noc1C | 6.1 (≈ 2.28 µg/mL) | 53 (≈ 19.8 µg/mL) | 5.78 | 5.53
18 | Cc1nc2ccccn2c1C(=O)Nc1ccc(C(C)(C)C)cc1 | 6.2 (≈ 1.91 µg/mL) | 85 (≈ 26.1 µg/mL) | 6.03 | 5.81
19 | O=C(C=Cc1cccs1)N1CCN(Cc2ccc(Br)s2)CC1 | 1.9 (≈ 0.755 µg/mL) | 152 (≈ 60.4 µg/mL) | 6.74 | 6.47
20 | CN1CCN(c2ccc(C(F)(F)F)cc2NC(=O)c2ccccn2)CC1 | 1.91 (≈ 0.694 µg/mL) | 182 (≈ 66.3 µg/mL) | 6.84 | 6.19

Row | SMILES | MIC90 [1] [µM] | solubility kinetic [2] [µM] | logP [3] | logD [4]
21 | Cc1ccc2nc(C(F)(F)F)c(C(=O)NCc3cccc(OC(C)C)c3)n2c1 | 2.1 (≈ 0.822 µg/mL) | 1 (≈ 0.391 µg/mL) | 6.43 | 6.19
22 | N#Cc1ccc2c(c1)CCN(CCCSc1ccnc3cc(C(F)(F)F)ccc13)CC2 | 2.4 (≈ 1.06 µg/mL) | 1 (≈ 0.442 µg/mL) | 8.64 | 7.96
23 | CCOc1ccc(OCc2ccc(C(=O)NNC(=O)c3ccc([N+](=O)[O-])o3)cc2)cc1 | 2.5 (≈ 1.06 µg/mL) | 1 (≈ 0.425 µg/mL) | 4.88 | 4.32
24 | O=C(NCc1ccccc1F)N1CCN(Cc2ccc(Br)s2)CC1 | 6.6 (≈ 2.72 µg/mL) | 60 (≈ 24.7 µg/mL) | 5.93 | 5.72
25 | O=C(N[C@@H](Cc1ccccc1)C(=O)Nc1ccccc1N1CCOCC1)c1cccs1 | 6.6 (≈ 2.87 µg/mL) | 52 (≈ 22.6 µg/mL) | 5.78 | 5.53
26 | CSc1ccc(-c2nnc(NC(=O)c3ccc(Cl)s3)o2)cc1 | 6.61 (≈ 2.32 µg/mL) | 67 (≈ 23.6 µg/mL) | 6.07 | 3.76
27 | OC1(c2ccccc2)Oc2ccccc2N=C1c1ccccc1 (stereo not given) | 6.68 (≈ 2.01 µg/mL) | 263 (≈ 79.3 µg/mL) | 6.19 | 6.09
28 | COc1ccc(CC(=O)Nc2c(-c3cccs3)nc3cc(C)ccn23)cc1 | 6.8 (≈ 2.57 µg/mL) | 87 (≈ 32.8 µg/mL) | 4.02 | 3.95
29 | Cc1ccc2nc(C(F)(F)F)c(C(=O)NCc3cc(Cl)cc(Cl)c3)n2c1 | 0.9 (≈ 0.362 µg/mL) | 1 (≈ 0.402 µg/mL) | 7.04 | 6.65
30 | Cc1ccc2nc(C(F)(F)F)c(C(=O)NCc3cccs3)n2c1 | 0.9 (≈ 0.305 µg/mL) | 17 (≈ 5.77 µg/mL) | 4.98 | 4.79
31 | CCOc1ccc(-c2nc(CNCCc3ccc(F)cc3)cs2)cc1.O=C(O)C(=O)O | 1.07 | 159 | 7.45 | 6.09
32 | Cc1ccc2nc(C(F)(F)F)c(C(=O)NCc3ccc4c(c3)OCO4)n2c1 | 1.1 (≈ 0.415 µg/mL) | 22 (≈ 8.3 µg/mL) | 4.98 | 4.79
33 | COc1ccc2nc(C)cc(OCC(=O)NCc3ccccc3)c2c1 | 1.1 (≈ 0.37 µg/mL) | 96 (≈ 32.3 µg/mL) | 3.92 | 3.86
34 | CCc1c(C)nc(-n2nc(C)cc2NC(=O)c2ccccc2SC)[nH]c1=O | 1.15 (≈ 0.44 µg/mL) | 1 (≈ 0.383 µg/mL) | 6.48 | 5.63
35 | Cc1ccc2nc(C)c(C(=O)NCc3ccco3)n2c1 | 1.3 (≈ 0.35 µg/mL) | 277 (≈ 74.6 µg/mL) | 3.02 | 3.02
36 | CCN(Cc1ccc2c(c1)OCO2)C(=O)CSc1nc(NC)c2ccccc2n1 | 2.8 (≈ 1.15 µg/mL) | 74 (≈ 30.4 µg/mL) | 4.83 | 4.69
37 | CCc1ccc(Nc2nnc(SCc3cc(C)on3)s2)cc1 | 2.8 (≈ 0.931 µg/mL) | 1 (≈ 0.332 µg/mL) | 5.98 | 5.72
38 | CN1CCN(c2cc(-c3ccc(F)cc3)nc(-c3ccncc3)n2)CC1 | 7.41 (≈ 2.59 µg/mL) | 44 (≈ 15.4 µg/mL) | 5.73 | 5.07
39 | COc1ccc(-c2ccc(Nc3cccc(S(=O)(=O)CCNCCc4cccs4)c3)nc2)cn1 | 7.59 (≈ 3.75 µg/mL) | 1 (≈ 0.495 µg/mL) | 5.83 | 5.63
40 | Cc1ccc2nc(Cl)c(CNCc3cccs3)cc2c1 | 7.59 (≈ 2.3 µg/mL) | 44 (≈ 13.3 µg/mL) | 7.23 | 6.84

Row | SMILES | MIC90 [1] [µM] | solubility kinetic [2] [µM] | logP [3] | logD [4]
41 | Cc1ccc2nc(C)c(C(=O)NCC(C)C)n2c1 | 7.67 (≈ 1.88 µg/mL) | 287 (≈ 70.4 µg/mL) | 3.41 | 3.39
42 | Cc1ccc(SCCNC(=O)c2c(-c3ccccc3)noc2C)cc1 | 7.76 (≈ 2.74 µg/mL) | 50 (≈ 17.6 µg/mL) | 6.68 | 6.37
43 | O=C(Nc1nc(-c2ccccn2)cs1)c1cncn1-c1ccccc1 | 7.94 (≈ 2.76 µg/mL) | 118 (≈ 41 µg/mL) | 3.38 | 3.39
44 | COc1ccc(-c2cc(NC(=O)c3ccc(F)cc3Cl)ccc2OC)cc1 | 8.13 (≈ 3.14 µg/mL) | 1 (≈ 0.386 µg/mL) | 6.48 | 6.28
45 | O=C(NCc1cc(Cl)cc(Cl)c1)c1c(C(F)(F)F)nc2ccccn12 | 3.1 (≈ 1.2 µg/mL) | 1 (≈ 0.388 µg/mL) | 6.48 | 6.09
46 | C=CCNc1nc(SC)nc2ccccc12 | 3.2 (≈ 0.74 µg/mL) | 279 (≈ 64.5 µg/mL) | 5.13 | 4.97
47 | O=C(NCc1ccc2c(c1)OCO2)c1c(C(F)(F)F)nc2ccccn12 | 3.3 (≈ 1.2 µg/mL) | 115 (≈ 41.8 µg/mL) | 4.38 | 4.23
48 | Cn1ccnc1CNCCS(=O)(=O)c1cccc(Nc2ccc(-c3cccc(F)c3)cn2)c1 | 4.68 (≈ 2.18 µg/mL) | 64 (≈ 29.8 µg/mL) | 4.62 | 4.41
49 | Cc1ccc2nc(C(F)(F)F)c(C(=O)NCc3ccc(C)o3)n2c1 | 3.43 (≈ 1.16 µg/mL) | 259 (≈ 87.4 µg/mL) | 5.18 | 4.97
50 | c1csc(-c2nnc(Sc3ccnc(N4CCN(c5ccncc5)CC4)n3)n2CCCN2CCOCC2)c1 | 3.43 (≈ 1.88 µg/mL) | 185 (≈ 102 µg/mL) | 3.12 | 2.08
51 | CC(C)n1ncc2c(C(=O)NCC(c3cccs3)N3CCOCC3)cc(-c3ccccc3)nc21 (stereo not given) | 4.8 (≈ 2.28 µg/mL) | 1 (≈ 0.476 µg/mL) | 7.54 | 7.21
52 | CC(C)c1ccc(-c2cncc(N3CCN(c4ccncc4)CC3)n2)cc1 | 8.32 (≈ 2.99 µg/mL) | 89 (≈ 32 µg/mL) | 6.74 | 4.79
53 | O=C(CCCSc1ccccc1)NNC(=O)c1cccs1 | 8.32 (≈ 2.67 µg/mL) | 559 (≈ 179 µg/mL) | 3.77 | 3.67
54 | COc1ccc(-c2nc(-c3cccc(NC(=O)Cc4ccc(F)cc4)c3)no2)cc1OC | 3.7 (≈ 1.6 µg/mL) | 102 (≈ 44.2 µg/mL) | 6.68 | 6.37
55 | Cc1ccc2nc(C(F)(F)F)c(C(=O)NCc3ccco3)n2c1 | 3.89 (≈ 1.26 µg/mL) | 159 (≈ 51.4 µg/mL) | 4.48 | 4.32
56 | N#Cc1nc(-c2ccccc2)oc1S(=O)(=O)c1ccc(Cl)cc1 | 8.9 (≈ 3.07 µg/mL) | 1 (≈ 0.345 µg/mL) | 7.48 | 7.12
57 | CN1CCN(c2cc(-c3ccncc3)nc(-c3ccccc3)n2)CC1 | 9.02 (≈ 2.99 µg/mL) | 379 (≈ 126 µg/mL) | 5.54 | 4.88
58 | N=C(Nc1nc(-c2ccccn2)cc2ccccc12)c1cccc(Cl)c1 | 4.5 (≈ 1.61 µg/mL) | 1 (≈ 0.359 µg/mL) | 8.64 | 8.24
59 | Cc1occc1C(=O)Nc1nc(-c2ccccn2)nc2ccsc12 | 4 (≈ 1.35 µg/mL) | 105 (≈ 35.3 µg/mL) | 4.93 | 4.79
60 | Cc1ccc2[nH]c(C3CCCNC3)c(-c3ccncc3)c2c1 (stereo not given) | 7.67 (≈ 2.24 µg/mL) | 267 (≈ 77.8 µg/mL) | 3.72 | 2.18
